Where a name gives a salt, the structure may show the parent alone.
Key:
[1] = target: T1, recombinant human c-Met/HGF receptor (Homo sapiens, UniProt P08581); experiment: In vitro receptor tyrosine kinase assay (DELFIA), c-Met/HGF receptor; type: biochemical; conditions: Table 30; ATP 10 uM, enzyme 25 nM; read-out: C-Met (enz.) (IC50)
T1 construct: His tag (histidine tag from pBlueBacHis2A); made in house; host or cells: Hi-5 cells (Trichoplusia ni), recombinant baculovirus

[2] = target: T2, VEGF receptor KDR (Homo sapiens, UniProt P35968); experiment: In vitro receptor tyrosine kinase assay (DELFIA), VEGF receptor KDR; type: biochemical; conditions: Table 30; ATP 0.6 uM, enzyme 5 nM; read-out: VEGF(enz.) (IC50)
T2 construct: made in house; host or cells: Sf9 cells (Spodoptera frugiperda), recombinant baculovirus
T2 sequence (P35968 806-1356): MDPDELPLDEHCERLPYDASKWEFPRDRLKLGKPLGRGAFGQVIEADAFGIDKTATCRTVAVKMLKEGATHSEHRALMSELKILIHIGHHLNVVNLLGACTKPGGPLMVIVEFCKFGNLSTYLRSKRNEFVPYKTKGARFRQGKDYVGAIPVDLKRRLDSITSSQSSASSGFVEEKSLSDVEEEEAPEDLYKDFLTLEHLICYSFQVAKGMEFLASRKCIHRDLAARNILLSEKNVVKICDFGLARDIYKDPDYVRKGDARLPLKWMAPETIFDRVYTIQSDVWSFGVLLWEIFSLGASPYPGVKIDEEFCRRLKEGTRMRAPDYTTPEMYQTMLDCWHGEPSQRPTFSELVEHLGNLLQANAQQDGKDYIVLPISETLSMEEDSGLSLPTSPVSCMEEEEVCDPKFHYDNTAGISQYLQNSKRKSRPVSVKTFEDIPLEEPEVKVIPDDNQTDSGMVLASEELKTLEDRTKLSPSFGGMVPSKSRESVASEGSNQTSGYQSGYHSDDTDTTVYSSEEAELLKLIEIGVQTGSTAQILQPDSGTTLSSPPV

[3] = target: TPR-MET fusion protein (Homo sapiens, UniProt P08581); experiment: C-Met phosphorylation cell-based assay (MNNGHOS cells, immunoblot); conditions: Table 30, 3 hours treatment, read-out: C-Met cell-based Y1230-34-35 tpr-met inhibition (IC50)
Chain of TPR-MET fusion protein (P08581 with tags, fused parts or gaps): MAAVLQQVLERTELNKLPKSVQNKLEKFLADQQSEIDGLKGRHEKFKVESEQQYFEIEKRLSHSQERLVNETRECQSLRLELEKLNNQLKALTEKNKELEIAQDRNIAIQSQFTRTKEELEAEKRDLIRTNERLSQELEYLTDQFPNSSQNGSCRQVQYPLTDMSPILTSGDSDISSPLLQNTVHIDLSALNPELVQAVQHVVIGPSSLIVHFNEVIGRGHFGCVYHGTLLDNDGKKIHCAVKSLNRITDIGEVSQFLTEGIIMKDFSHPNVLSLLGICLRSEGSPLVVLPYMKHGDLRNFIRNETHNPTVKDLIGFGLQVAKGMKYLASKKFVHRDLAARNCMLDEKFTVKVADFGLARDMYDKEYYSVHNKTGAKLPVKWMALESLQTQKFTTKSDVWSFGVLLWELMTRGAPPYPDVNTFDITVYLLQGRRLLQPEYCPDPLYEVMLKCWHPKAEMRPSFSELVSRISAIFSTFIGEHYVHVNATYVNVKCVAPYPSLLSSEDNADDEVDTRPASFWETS
Source text: C-Met Phosphorylation Cell-Based Assay

[4] = tested on: U87 cells; experiment: In vivo solid tumor disease model, U87 xenograft; design: species or system female athymic CD 1 mice; conditions: U87MG
Source text: (§1) In Vivo Solid Tumor Disease Model
(§2) This test measures the capacity of compounds to inhibit solid tumor growth.
(§3) Tumor xenografts were established in the flank of female athymic CD 1 mice (Charles River Inc.), by subcutaneous injection of 1×10^6U87, A431 or SKLMS cells/mouse. Once established, tumors were then serially passaged s.c. in nude mice hosts. Tumor fragments from these host animals were used in subsequent compound evaluation experiments. For compound evaluation experiments female nude mice weighing approximately 20 g were implanted s.c. by surgical implantation with tumor fragments of ˜30 mg from donor tumors. When the tumors were approximately 100 mm^3 in size (˜7-10 days following implantation), the animals were randomized a separated into treatment and control groups. Each group contained 6-8 tumor-bearing mice, each of which was ear-tagged and followed individually throughout the experiment
(§4) Mice were weighed and tumor measurements are taken by calipers three times weekly, starting on Day 1. These tumor measurements were converted to tumor volume by the well-known formula (L+W/4)^34/3π. The experiment was terminated when the control tumors reached a size of approximately 1500 mm^3. In this model, the change in mean tumor volume for a compound treated group/the change in mean tumor volume of the control group (non-treated or vehicle treated)×100 (ΔT/ΔC) was subtracted from 100 to give the percent tumor growth inhibition (% TGI) for each test compound. In addition to tumor volumes, body weight of animals were monitored twice weekly for up to 3 weeks.
(§5) Regiment of administration was once daily.

[5] = tested on: HCT116; experiment: In vivo solid tumor disease model, HCT116 xenograft; design: species or system female athymic CD 1 mice; conditions: 14 days
[6] = tested on: SKLMS cells; experiment: In vivo solid tumor disease model, SKLMS xenograft; design: species or system female athymic CD 1 mice; conditions: SKLMS40
Source text: as §1, §2, §3, §4, §5

[7] = tested on: A549; experiment: In vivo solid tumor disease model, A549 xenograft; design: species or system female athymic CD 1 mice
[8] = tested on: DU145; experiment: In vivo solid tumor disease model, DU145 xenograft; design: species or system female athymic CD 1 mice; conditions: 10 days
[9] = 30 mg/kg once daily IP, vehicle DMSO, 14 days
[10] = 15 mg/kg once daily IP, vehicle DMSO, 10 days
[11] = 30 mg/kg once daily IP, vehicle DMSO, 10 days
[12] = 75 mg/kg once daily PO, vehicle 5% DMSO - 1% Tween-80 in water, 14 days
[13] = 75 mg/kg once daily PO, vehicle 5% DMSO - 1% Tween-80 in water, 10 days

T1 sequence (P08581 1078-1337): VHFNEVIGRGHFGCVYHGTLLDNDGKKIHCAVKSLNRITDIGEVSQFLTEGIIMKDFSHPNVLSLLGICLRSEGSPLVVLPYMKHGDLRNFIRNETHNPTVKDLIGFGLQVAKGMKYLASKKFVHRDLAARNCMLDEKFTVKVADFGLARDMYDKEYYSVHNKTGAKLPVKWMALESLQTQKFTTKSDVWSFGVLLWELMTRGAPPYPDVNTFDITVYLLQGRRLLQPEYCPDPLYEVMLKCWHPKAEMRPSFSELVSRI

| IC50 [1] | IC50 [2] | IC50 [3] | Compound | further results |
| --- | --- | --- | --- | --- |
| 0.05 to 0.25 µM | < 0.05 µM | < 0.05 µM | O=C(Cc1ccccc1)NC(=S)Nc1ccc(Oc2ccnc3cc(-c4nccs4)sc23)c(F)c1 [Example 12, 1-(4-(2-(Thiazol-2-yl)thieno[3,2-b]pyridin-7-yloxy)-3-fluorophenyl)-3-(2-phenylacetyl)thiourea] | Tumor Growth Inhibition (%) [4, 9]: b (% TGI in the range of 50-74); Tumor Growth Inhibition (%) ([5]; HST116, 30 mg/kg once daily IP, vehicle DMSO): c (% TGI in the range of 25-49) |
|  | < 0.05 µM |  | Cn1cnnc1-c1cc2nccc(Oc3ccc(NC(=S)NC(=O)Cc4ccccc4)cc3F)c2s1 [Example 75, N-(3-Fluoro-4-(2-(4-methyl-4H-1,2,4-triazol-3-yl)thieno[3,2-b]pyridin-7-yloxy)phenylcarbamothioyl)-2-phenylacetamide] | Tumor Growth Inhibition (%) [4, 10]: d (% TGI in the range of 0-24); Tumor Growth Inhibition (%) [4, 11]: c (% TGI in the range of 25-49); Tumor Growth Inhibition (%) [4, 9]: c (% TGI in the range of 25-49); Tumor Growth Inhibition (%) ([4]; 100 mg/kg once daily PO, vehicle 5% DMSO - 1% Tween-80 in water, 14 days): b (% TGI in the range of 50-74); Tumor Growth Inhibition (%) [6, 10]: b (% TGI in the range of 50-74); Tumor Growth Inhibition (%) ([7]; 75 mg/kg once daily PO, vehicle 5% DMSO - 1% Tween-80 in water, 12 days): b (% TGI in the range of 50-74); Tumor Growth Inhibition (%) ([8]; 15 mg/kg once daily IP, vehicle DMSO): c (% TGI in the range of 25-49) |
| 0.05 to 0.25 µM | 0.05 to 0.25 µM | < 0.05 µM | CN(Cc1ccco1)C(=O)c1cc2nccc(Oc3ccc(NC(=S)NC(=O)Cc4ccccc4)cc3F)c2s1 [Example 35, 7-[2-Fluoro-4-(3-phenylacetyl-thioureido)-phenoxy]-thieno[3,2-b]pyridine-2-carboxylic acid furan-2-ylmethyl-methyl-amide] |  |
| 0.05 to 0.25 µM | < 0.05 µM | 0.05 to 0.25 µM | CN(C)C(=O)c1cc2ncnc(Oc3ccc(NC(=S)NC(=O)Cc4ccccc4)cc3F)c2s1 [Example 23, 1-(4-(6-(Dimethylcarbamoyl)thieno[3,2-d]pyrimidin-4-yloxy)-3-fluorophenyl)-3-(2-phenylacetyl)thiourea] |  |
| 0.05 to 0.25 µM | < 0.05 µM | < 0.05 µM | O=C(Cc1ccccc1)NC(=S)Nc1ccc(Oc2ncnc3cc(C(=O)N4CCCC4)sc23)c(F)c1 [Example 142, N-(3-Fluoro-4-(6-(pyrrolidine-1-carbonyl)thieno[3,2-d]pyrimidin-4-yloxy)phenylcarbamothioyl)-2-phenylacetamide] |  |
|  |  |  | CCn1cnc(-c2cc3nccc(Oc4ccc(NC(=S)NC(=O)Cc5ccccc5F)cc4F)c3s2)c1 [Example 242, 1-{4-[2-(1-Ethyl-1H-imidazol-4-yl)-thieno[3,2-b]pyridin-7-yloxy]-3-fluoro-phenyl}-3-[2-(2-fluoro-phenyl)-acetyl]-thiourea] | Tumor Growth Inhibition (%) [4, 12]: a (% TGI in the range of 75-100); Tumor Growth Inhibition (%) ([5]; HCT116, 75 mg/kg once daily PO, vehicle 5% DMSO - 1% Tween-80 in water): b (% TGI in the range of 50-74) |
|  |  |  | CC(C)(C)OC(=O)NC1CCN(C(=O)c2cc3ncnc(Oc4ccc(NC(=S)NC(=O)Cc5ccccc5)cc4F)c3s2)C1 (stereo not shown) [Example 148, tert-Butyl 1-(4-(2-fluoro-4-(3-(2-phenylacetyl)thioureido)phenoxy)thieno[3,2-d]pyrimidine-6-carbonyl)pyrrolidin-3-ylcarbamate] | Tumor Growth Inhibition (%) ([4]; 30 mg/kg once daily IP, vehicle 50/50 DMSO:40/60 PEG/0.2 N HCl in saline, 10 days): c (% TGI in the range of 25-49); Tumor Growth Inhibition (%) ([8]; 30 mg/kg once daily IP, vehicle DMSO): c (% TGI in the range of 25-49) |
|  |  |  | Cn1cc(-c2cc3nccc(Oc4ccc(NC(=S)NC(=O)Cc5ccccc5)cc4F)c3s2)cn1 [Example 81, N-(3-Fluoro-4-(2-(1-methyl-1H-pyrazol-4-yl)thieno[3,2-b]pyridin-7-yloxy)phenylcarbamothioyl)-2-phenylacetamide] | Tumor Growth Inhibition (%) [6, 12]: c (% TGI in the range of 25-49) |
| 0.05 to 0.25 µM | 0.05 to 0.25 µM | < 0.05 µM | O=C(Cc1ccccc1)NC(=S)Nc1ccc(Oc2ncnc3cc(C(=O)NCCN4CCOCC4)sc23)c(F)c1 [Example 22, 1-(4-(6-(2-Morpholinoethylcarbamoyl)thieno[3,2-d]pyrimidin-4-yloxy)-3-fluorophenyl)-3-(2-phenylacetyl)thiourea] |  |
|  |  |  | CCn1cnc(-c2cc3nccc(Oc4ccc(NC(=S)NC(=O)Cc5ccccc5OC)cc4F)c3s2)c1 [Example 243, 1-{4-[2-(1-Ethyl-1H-imidazol-4-yl)-thieno[3,2-b]pyridin-7-yloxy]-3-fluoro-phenyl}-3-[2-(2-methoxy-phenyl)-acetyl]-thiourea] | Tumor Growth Inhibition (%) [4, 12]: b (% TGI in the range of 50-74); Tumor Growth Inhibition (%) ([6]; 75 mg/kg once daily PO, vehicle 5% DMSO - 1% Tween-80 in water, 11 days): b (% TGI in the range of 50-74) |
| < 0.05 µM | > 0.5 µM | > 0.5 µM | O=C(Cc1ccccc1)NC(=S)Nc1ccc(Oc2ccnc3cc[nH]c23)c(F)c1 [Example 221, N-(4-(1H-Pyrrolo[3,2-b]pyridin-7-yloxy)-3-fluorophenylcarbamothioyl)-2-phenyl acetamide] |  |
|  |  |  | CCn1cnc(-c2cc3nccc(Oc4ccc(NC(=S)NC(=O)Cc5ccccc5)cc4F)c3s2)c1 [Example 77, N-(4-(2-(1-Ethyl-1H-imidazol-4-yl)thieno[3,2-b]pyridin-7-yloxy)-3-fluorophenylcarbamothioyl)-2-phenylacetamide] | Tumor Growth Inhibition (%) [4, 12]: b (% TGI in the range of 50-74); Tumor Growth Inhibition (%) ([6]; 75 mg/kg once daily PO, vehicle 5% DMSO - 1% Tween-80 in water, 6 days): d (% TGI in the range of 0-24); Tumor Growth Inhibition (%) [7, 11]: b (% TGI in the range of 50-74); Tumor Growth Inhibition (%) [7, 13]: b (% TGI in the range of 50-74) |
|  |  |  | Cn1cnc(-c2cc3nccc(Oc4ccc(NC(=S)NC(=O)Cc5ccccc5)cc4F)c3s2)c1 [Example 76, N-(3-Fluoro-4-(2-(1-methyl-1H-imidazol-4-yl)thieno[3,2-b]pyridin-7-yloxy)phenylcarbamothioyl)-2-phenylacetamide] | Tumor Growth Inhibition (%) [7, 9]: b (% TGI in the range of 50-74); Tumor Growth Inhibition (%) [7, 13]: b (% TGI in the range of 50-74); Tumor Growth Inhibition (%) [7, 12]: c (% TGI in the range of 25-49); Tumor Growth Inhibition (%) ([8]; 75 mg/kg once daily PO, vehicle 5% DMSO - 1% Tween-80 in water): c (% TGI in the range of 25-49) |
| 0.05 to 0.25 µM | > 0.5 µM | 0.05 to 0.25 µM | CC(C)N(CCNC(=O)c1cc2nccc(Oc3ccc(NC(=S)NC(=O)Cc4ccccc4)cc3F)c2s1)C(C)C [Example 36, 7-[2-Fluoro-4-(3-phenylacetyl-thioureido)-phenoxy]-thieno[3,2-b]pyridine-2-carboxylic acid (2-diisopropylamino-ethyl)-amide, formate salt] |  |

| Compound | IC50 [1] | IC50 [2] | IC50 [3] | further results |
| --- | --- | --- | --- | --- |
| COC(=O)C(C)N(C(=S)NC(=O)Cc1ccccc1)c1ccc(Oc2ccnc3cc(C(N)=O)sc23)c(F)c1 (stereo not shown) [Example 11, Methyl 2-(1-(4-(2-(carbamoyl)thieno [3,2-b]pyridin-7-yloxy)-3-fluorophenyl)-3-(2-phenylacetyl)thioureido) propanoate] | 0.05 to 0.25 µM | > 0.5 µM | 0.05 to 0.25 µM |  |
| 1-(4-(2- (morpholinylcarbamoyl) thieno[3,2- b]pyridin-7-yloxy)-3- fluorophenyl)-3-(2- phenylacetyl)thiourea [Example 3] | 0.05 to 0.25 µM | 0.25 to 0.5 µM | 0.05 to 0.25 µM |  |
| 1-(4-(6-(4-N- Methylpiperazylcarbamoyl) thieno[3,2- d]pyrimidin-4-yloxy)- 3-fluorophenyl)-3-(2- phenylacetyl)thiourea [Example 24] | 0.05 to 0.25 µM | 0.25 to 0.5 µM | > 0.5 µM |  |

Reference: patent publication US20100249145A1, “Inhibitors of VEGF Receptor and HGF Receptor Signaling” (Methylgene, Inc., priority 2005, published 2010)
